From PubChem BioAssay AID1259407 (Chemical Carcinogenesis Research Information System (CCRIS), 2018) come the findings set out here.

The structures appear in SMILES notation. Activity calls are given as the source filed them. How the calls were made is not given here.

This data set deals with CCRIS mutagenicity, Ames/micronucleus/aberration tests. As to the kind of experiment: CCRIS mutagenicity studies.
[1] abbreviates: Test System: AMES SALMONELLA TYPHIMURIUM, Strain/Indicator: TA100, Metabolic Activation: NONE, Method: PREINCUBATION
Setting [2] is: Test System: AMES SALMONELLA TYPHIMURIUM, Strain/Indicator: TA100, Metabolic Activation: NONE, Method: STANDARD PLATE.
Setting [3] is: Test System: AMES SALMONELLA TYPHIMURIUM, Strain/Indicator: TA98, Metabolic Activation: NONE, Method: PREINCUBATION

In the case of `c1ccc2c(CC3CO3)cccc2c1` (stereo unspecified), the mutagenic call under setting [1] is “active; positive”; the mutagenic call under setting [2] was “active; positive”; the mutagenic call (Test System: AMES SALMONELLA TYPHIMURIUM, Strain/Indicator: TA104, Metabolic Activation: NONE, Method: STANDARD PLATE) was “active; positive”; the mutagenic call (Test System: AMES SALMONELLA TYPHIMURIUM, Strain/Indicator: TA1535, Metabolic Activation: NONE, Method: PREINCUBATION) was “active; positive”; the mutagenic call (Test System: AMES SALMONELLA TYPHIMURIUM, Strain/Indicator: TA1535, Metabolic Activation: NONE, Method: STANDARD PLATE) is “active; positive”; the mutagenic call (Test System: AMES SALMONELLA TYPHIMURIUM, Strain/Indicator: TA4001, Metabolic Activation: NONE, Method: STANDARD PLATE) is “active; positive”. For the same compound, the mutagenic call (Test System: AMES SALMONELLA TYPHIMURIUM, Strain/Indicator: TA4006, Metabolic Activation: NONE, Method: STANDARD PLATE) is “active; positive”.

On to `O=Nc1ccccc1-c1ccccc1`, for which the mutagenic call by setting is: (Test System: AMES SALMONELLA TYPHIMURIUM, Strain/Indicator: TA98, Metabolic Activation: NONE, Method: STANDARD PLATE) “inactive; negative”; under setting [2], “active; positive”.

On to `O=[N+]([O-])c1ccc2c(c1)CCc1cc3c(cc1-2)CCCC3`, for which the mutagenic call reads like this: (Test System: AMES SALMONELLA TYPHIMURIUM, Strain/Indicator: TA98(1,8-DNP6), Metabolic Activation: NONE) “active; positive”; (Test System: AMES SALMONELLA TYPHIMURIUM, Strain/Indicator: TA98(1,8-DNP6), Metabolic Activation: RAT, LIVER, S-9, AROCLOR 1254) “active; positive”; (Test System: AMES SALMONELLA TYPHIMURIUM, Strain/Indicator: TA98(NR), Metabolic Activation: NONE) “active; positive”; (Test System: AMES SALMONELLA TYPHIMURIUM, Strain/Indicator: TA98(NR), Metabolic Activation: RAT, LIVER, S-9, AROCLOR 1254) “active; positive”; (Test System: AMES SALMONELLA TYPHIMURIUM, Strain/Indicator: TA98, Metabolic Activation: NONE) “active; positive”; (Test System: AMES SALMONELLA TYPHIMURIUM, Strain/Indicator: TA98, Metabolic Activation: RAT, LIVER, S-9, AROCLOR 1254) “active; positive”. Moreover, the mutagenic call was “active; positive” (Test System: AMES SALMONELLA TYPHIMURIUM, Strain/Indicator: TA100(NR), Metabolic Activation: NONE); “active; positive” (Test System: AMES SALMONELLA TYPHIMURIUM, Strain/Indicator: TA100(NR), Metabolic Activation: RAT, LIVER, S-9, AROCLOR 1254); “active; positive” (Test System: AMES SALMONELLA TYPHIMURIUM, Strain/Indicator: TA100, Metabolic Activation: NONE); “active; positive” (Test System: AMES SALMONELLA TYPHIMURIUM, Strain/Indicator: TA100, Metabolic Activation: RAT, LIVER, S-9, AROCLOR 1254); “active; positive” (Test System: AMES SALMONELLA TYPHIMURIUM, Strain/Indicator: TA104, Metabolic Activation: NONE); “active; positive” (Test System: AMES SALMONELLA TYPHIMURIUM, Strain/Indicator: TA104, Metabolic Activation: RAT, LIVER, S-9, AROCLOR 1254).

On to `CC1(C)CC(C(=O)NC(CO)C(O)CO)C(C)(C)N1O` (stereo unspecified), for which the mutagenic call reads like this: (Test System: CHO, Strain/Indicator: CHO/6-THIOGUANINE, Metabolic Activation: NONE, Method: STANDARD PLATE) “inactive; negative”; (Test System: CHO, Strain/Indicator: CHO/6-THIOGUANINE, Metabolic Activation: RAT, LIVER, S-9, AROCLOR 1254, Method: STANDARD PLATE) “inactive; negative”; (Test System: CHO, Strain/Indicator: CHO/OUABAIN, Metabolic Activation: NONE, Method: STANDARD PLATE) “inactive; negative”; (Test System: CHO, Strain/Indicator: CHO/OUABAIN, Metabolic Activation: RAT, LIVER, S-9, AROCLOR 1254, Method: STANDARD PLATE) “inactive; negative”.

As to `CC(=O)Nc1ccnc2ccccc12`, the mutagenic call runs as follows: under setting [3], “inactive; negative”; (Test System: AMES SALMONELLA TYPHIMURIUM, Strain/Indicator: TA98, Metabolic Activation: RAT, LIVER, S-9, KANECHLOR 500, Method: PREINCUBATION) “inactive; negative”; under setting [1], “inactive; negative”; (Test System: AMES SALMONELLA TYPHIMURIUM, Strain/Indicator: TA100, Metabolic Activation: RAT, LIVER, S-9, KANECHLOR 500, Method: PREINCUBATION) “inactive; negative”.

Consider `O[C@H]1[C@H]2O[C@H]2c2c(ccc3cc4ccc5ccccc5c4nc23)[C@@H]1O`, for which the mutagenic call was “active; positive” under setting [3]; “active; positive” under setting [1]; “active; positive” (Test System: CHINESE HAMSTER V-79, Strain/Indicator: V-79/8-AZAGUANINE, Metabolic Activation: NONE, Method: STANDARD PLATE).

Take `CCCCN(CC(O)c1ccc([O-])c([N+]#N)c1)N=O` (stereo unspecified): the mutagenic call under setting [3] was “active; positive”; the mutagenic call (Test System: AMES SALMONELLA TYPHIMURIUM, Strain/Indicator: TA98, Method: PREINCUBATION) is “active; positive”; the mutagenic call under setting [1] was “active; positive”; the mutagenic call (Test System: AMES SALMONELLA TYPHIMURIUM, Strain/Indicator: TA100, Method: PREINCUBATION) is “active; positive”.
